{"source": "ChEMBL document CHEMBL1153753", "about": "“Structure-activity relationships and mechanism of action of antitumor bis 8-hydroxyquinoline substituted benzylamines” (Eur J Med Chem, 2010)", "key": {"[1]": {"assay": "Disregulation of inflammation related gene expression in human U87 cells assessed as change in IL8 mRNA level at 0.5 uM after 16 hrs by microarray analysis relative to untreated control", "type": "functional, cell-based", "settings": "U-87MG ATCC"}, "[2]": {"assay": "Disregulation of cell cycle related gene expression in human U87 cells assessed as change in SKP2 mRNA level at 0.5 uM after 16 hrs by microarray analysis relative to untreated control", "type": "functional, cell-based", "settings": "U-87MG ATCC"}, "[3]": {"assay": "Disregulation of cell development related gene expression in human U87 cells assessed as change in PRPX1 mRNA level at 0.5 uM after 16 hrs by microarray analysis relative to untreated control", "type": "functional, cell-based", "settings": "U-87MG ATCC"}, "[4]": {"assay": "Disregulation of apoptosis related gene expression in human U87 cells assessed as change in FAS mRNA level at 0.5 uM after 16 hrs by microarray analysis relative to untreated control", "type": "functional, cell-based", "settings": "U-87MG ATCC"}, "[5]": {"assay": "Disregulation of endoplasmic reticulum stress responsive gene expression in human U87 cells assessed as change in Chop mRNA level at 0.5 uM after 16 hrs by microarray analysis relative to untreated control", "type": "functional, cell-based", "settings": "U-87MG ATCC"}, "[6]": {"assay": "Disregulation of cell cycle related gene expression in human U87 cells assessed as change in cyclin E2 mRNA level at 0.5 uM after 16 hrs by microarray analysis relative to untreated control", "type": "functional, cell-based", "settings": "U-87MG ATCC"}, "[7]": {"assay": "Cytotoxicity against human KB3 cells after 72 hrs by MTS assay", "type": "functional", "settings": "KB3, 72 h"}, "[8]": {"assay": "Disregulation of cell survival related gene expression in human U87 cells assessed as change in FGF2 mRNA level at 0.5 uM after 16 hrs by microarray analysis relative to untreated control", "type": "functional, cell-based", "settings": "U-87MG ATCC"}, "[9]": {"assay": "Disregulation of DNA-damage and oxidative stress responsive gene expression in human U87 cells assessed as change in DDIT4 mRNA level at 0.5 uM after 16 hrs by microarray analysis relative to untreated control", "type": "functional, U-87MG ATCC"}, "[10]": {"assay": "Disregulation of DNA-damage and oxidative stress responsive gene expression in human U87 cells assessed as change in GADD45A mRNA level at 0.5 uM after 16 hrs by microarray analysis relative to untreated control", "type": "functional, U-87MG ATCC"}}, "data": [{"smiles": "Cc1ccc(CN(Cc2ccc(O)c3ncccc23)Cc2ccc(O)c3ncccc23)cc1", "values": [{"measurement": "fold change (FC)", "setting": "[1]", "result": 3}, {"measurement": "fold change (FC)", "setting": "[2]", "result": 3}, {"measurement": "fold change (FC)", "setting": "[3]", "result": 3}, {"measurement": "fold change (FC)", "setting": "[4]", "result": 3}, {"measurement": "fold change (FC)", "setting": "[5]", "result": 3}, {"measurement": "fold change (FC)", "setting": "[6]", "result": 3}, {"measurement": "CC50", "setting": "[7]", "result": 3, "unit": "nM"}, {"measurement": "fold change (FC)", "setting": "[8]", "result": 3}, {"measurement": "fold change (FC)", "setting": "[9]", "result": 3}, {"measurement": "fold change (FC)", "setting": "[10]", "result": 3}]}]}
